Where “and” joins values, the source holds several entries; their conditions need not be identical. Equal values may be shown once.
Key:
human ABCB4 [1] = biological target: T1, human ABCB4 (Homo sapiens, UniProt P21439); assay: ATP hydrolysis (malachite green) of purified ABCB4 in the presence of 300 μM DOPC (with or without cholesterol); assay type: biochemical; settings: for activity at 1000 µM: 1,000 μM bile acid/detergent/BAM + 300 μM DOPC, read-out: Relative ATPase activity in the presence of 300 μM DOPC
T1 construct: made in house; host or cells: Pichia pastoris (chromosomally integrated)
Protocol: A sample of purified ABCB4 was incubated with 10-fold molar excess of BODIPY® FL maleimide (BODIPY® FL N-(2-aminoethyl)maleimide, Molecular Probes) at 22°C for 20 min. The reaction was quenched after 20 min by addition of a 20-fold molar excess of dithiothreitol (DTT) at 22°C for 10 min. Qualitative labeling efficiency was analyzed by visualizing a sample after SDS-PAGE by UV excitation.
DOPC was dissolved in chloroform, the solvent was evaporated, and the dried lipid sample was redissolved in ATP hydrolysis reaction buffer (50 mM Tris HCl, pH 7.4 at 37°C, 100 mM NaCl) at a concentration of 25.4 mM following the protocol of Geertsma et al. ([59]). Prior to the addition of the DOPC sample to the ATP hydrolysis assay, it was diluted to 5 mM, sonicated until a clear solution was obtained, and subsequently used at a final concentration of 300 μM. Since chloroform is not suitable for the later ATPase assay and cholesterol at higher concentration is insoluble in water and nearly all solvents, a molar mixture of cholesterol and DOPC was used. This mixture was obtained by adding the required molar ratio of cholesterol to always the same amount of dried DOPC. Afterward, the mixture was treated identical to DOPC only as described above resulting in a final concentration (f.c.) of 300 μM DOPC with 0–1,000 μM cholesterol in the ATPase assay.
(§1) The sodium salts of conjugated and unconjugated bile acids were dissolved in double-distilled water (ddH2O) or 100% DMSO at a concentration of 100 mM. While glyco-/tauro-/cholic acid (G/T/CA), glyco-/tauro-/chenodeoxycholic acid (G/T/CDCA) were dissolved in ddH2O water, glyco-/tauro-/deoxycholic acid (G/T/DCA), glyco/-tauro-/ursodeoxycholic acid (G/T/UDCA) as wells as Nor-UDCA and taurolithocholic acid (TLCA) were dissolved in DMSO. […] Modulation of the ATP hydrolysis by bile acid was determined in a concentration-dependent manner from 0 to 1,000 μM bile acids.
(§2) Analysis of the ATP activity of ABCB4 was performed by determining the amount of released, free inorganic orthophosphate by the malachite green assay ([53], [54], [60]) with minor modifications. The assay was performed in a total volume of 100 μl consisting of reaction buffer (50 mM Tris HCl, pH 7.4 at 37°C, 100 mM NaCl) supplemented with the 2.5 × cmc of FC-16 and 10 mM MgCl2. For determining the effect of DOPC, different bile acids or combinations thereof, 1–5 μL of the corresponding stock solutions (see lipid and bile acid preparation) were added. Five micrograms of ABCB4 or the BODIPY®-labeled sample was used in every reaction sample. Reaction was started by addition of ATP (5 mM f.c.) and performed for 40 min at 37°C. After 0 and 40 min, the reaction was stopped by transferring 25 μl of the reaction mixture into a 96-well plate containing 175 μl of 20 mM ice-cold sulfuric acid. Additionally, a phosphate standard with concentrations raging from 0 to 500 μM was used. Subsequently, inorganic phosphate was stained by adding 50 μl of dye (0.096% (w/v) malachite green, 1.48% (w/v) ammonium molybdate, 0.173% (w/v) Tween-20, and […] sulfuric acid). After incubation for 15 min, the absorption at 595 nm was measured (iMark™ Microplate Reader, BioRad), and the concentrations of phosphate release were calculated based on the slope of the line calculated based on the phosphate standards.
(§3) Basal ATPase activity of ABCB4 was set to 0% and the effect of supplements was calculated as % stimulation or % inhibition of the basal activity, respectively. For determination of kinetic parameters, bile acid concentration was varied and analyzed according to an allosteric sigmoidal fit (Equation 1):(1) v=vmax∗[S]^h/EC50h+[S]^h

human ABCB4 [2] = biological target: T1, human ABCB4; assay: ATP hydrolysis (malachite green) of detergent-solubilized, purified ABCB4: modulation of basal ATPase activity; assay type: biochemical; settings: for Concentration at which maximal stimulation (plateau) of ATPase activity is reached / EC50 / Emax: 0-1,000 μM; for EC50: stimulation of basal ATPase activity, allosteric sigmoidal fit, read-out: EC50; for Emax: vmax of allosteric sigmoidal fit (Equation 1), basal ABCB4 ATPase activity set to 0%, read-out: Max. Stimulation (%)
Protocol: as §1, §2, §3
Here, v describes the stimulation (%), vmax is the maximal stimulation (%), EC50 represents the half maximal effective concentration, S is the substrate concentration, and h is the Hill coefficient
In case of inhibition, the reduction (%) was plotted against the bile acid concentration and data were analyzed using Equation 2:(2) y=ymin+(ymax−ymin)/1+10^((logIC50−x)∗slope)
Here, ymax is the smallest, and ymin is the highest amount of inhibition, respectively, and x represents the concentration of the inhibitor. The IC50 value is defined as the concentration necessary to obtain 50% inhibition.
In case of both substrate stimulations, followed by substrate inhibition after maximal stimulation was reached, the modulation (%) was plotted against the substrate concertation and data was analyzed using by two fits: First part (stimulation) was as usually fitted using Equation 1. The second part (substrate inhibition) was analyzed by Equation 3 starting at the last point of the plateau:(3) y=ymin+[…]/(1+x/IC50)
Here, ymax is the highest value of the plateau after stimulation is reached, while ymin is the smallest value of y after maximal stimulation was reached.

[3] = Critical micelle concentration by Hoechst 33342 fluorescence in ATPase reaction buffer; assay type: physicochemical; settings: 50 mM Tris-HCl pH 7.5, 100 mM NaCl, 37°C; no FC-16, MgCl2 or ATP
Protocol: CMC values were determined as described ([61]). […] 96-well plates suitable for fluorescence spectroscopy (Greiner Bio-One, FIA plate, black, flat bottom, medium binding) were used. […] CMCs of the bile acids were determined in ATPase reaction buffer (50 mM Tris-HCl, pH 7.5 (at 37°C), 100 mM NaCl) containing no FC-16, MgCl2, or ATP at 37°C using a Tecan M200 plate reader (Atlantic lab equipment). Bile acids were dissolved either in ddH2O or in 100% DMSO (as stated in “Lipid, cholesterol and bile acid preparation”) at a concentration of 100 mM. […] In case of hydrophobic bile acids, which were dissolved in DMSO, DMSO concentration was adapted to 1% in all wells. […] After background correction, fluorescence data were analyzed using Prism (version 8, GraphPad) with Equation 4:(4) F=Fmax∗(c[BA]−cmc)/(K0.5−cmc)+(c[BA]−cmc)
The measured fluorescence at each bile acid concentration (c[BA]) is represented by F, while Fmax is the maximal fluorescence, K0.5 is the midpoint of the function, and cmc is the critical micelle concentration of the bile acid.

[4] = Hill coefficient of allosteric sigmoidal fit of ATPase stimulation

T1 sequence (P21439 1-1279 isoform P21439-2): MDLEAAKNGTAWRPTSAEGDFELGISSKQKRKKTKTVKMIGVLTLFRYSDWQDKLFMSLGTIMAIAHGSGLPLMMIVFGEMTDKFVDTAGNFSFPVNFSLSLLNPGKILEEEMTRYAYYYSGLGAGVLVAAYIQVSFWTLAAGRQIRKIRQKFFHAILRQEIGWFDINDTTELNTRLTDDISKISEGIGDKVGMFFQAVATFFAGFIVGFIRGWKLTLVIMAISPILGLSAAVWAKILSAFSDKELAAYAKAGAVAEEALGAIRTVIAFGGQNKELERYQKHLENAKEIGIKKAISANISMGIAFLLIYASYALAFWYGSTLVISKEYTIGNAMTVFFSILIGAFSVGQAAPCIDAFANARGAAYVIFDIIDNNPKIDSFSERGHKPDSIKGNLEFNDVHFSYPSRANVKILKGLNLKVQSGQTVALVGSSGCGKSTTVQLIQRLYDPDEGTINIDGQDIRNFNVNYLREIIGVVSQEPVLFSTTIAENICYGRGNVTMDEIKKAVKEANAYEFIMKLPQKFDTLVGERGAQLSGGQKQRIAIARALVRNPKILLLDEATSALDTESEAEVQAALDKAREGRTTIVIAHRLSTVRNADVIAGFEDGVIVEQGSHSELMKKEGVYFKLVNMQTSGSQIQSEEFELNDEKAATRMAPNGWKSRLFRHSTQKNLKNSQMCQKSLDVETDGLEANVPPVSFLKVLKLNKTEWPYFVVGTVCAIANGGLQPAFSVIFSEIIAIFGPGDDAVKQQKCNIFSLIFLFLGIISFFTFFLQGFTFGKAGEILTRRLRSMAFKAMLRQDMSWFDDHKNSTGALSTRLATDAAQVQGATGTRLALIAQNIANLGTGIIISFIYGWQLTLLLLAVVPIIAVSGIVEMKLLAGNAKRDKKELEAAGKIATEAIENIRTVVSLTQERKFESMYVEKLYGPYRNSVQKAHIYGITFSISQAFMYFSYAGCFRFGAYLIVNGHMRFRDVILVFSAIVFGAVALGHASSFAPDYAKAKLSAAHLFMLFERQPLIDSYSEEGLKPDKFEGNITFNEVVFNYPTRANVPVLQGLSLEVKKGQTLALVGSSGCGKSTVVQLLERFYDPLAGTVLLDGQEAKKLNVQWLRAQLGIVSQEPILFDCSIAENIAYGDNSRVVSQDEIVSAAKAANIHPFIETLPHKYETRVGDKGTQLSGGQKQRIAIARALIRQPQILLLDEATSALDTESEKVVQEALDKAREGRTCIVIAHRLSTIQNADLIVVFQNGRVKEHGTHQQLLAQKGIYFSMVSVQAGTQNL

SMILES	activity at 1000 µM (human ABCB4 [1]; DOPC alone set to 100%) [%]	Slope (human ABCB4 [2]; [4])	Concentration at which maximal stimulation (plateau) of ATPase activity is reached (human ABCB4 [2]; basal ATPase activity)	EC50 (human ABCB4 [2]) [µM]	Emax (human ABCB4 [2]) [%]	Critical micelle concentration (cmc) [3]	Decrease of DOPC-stimulated ATPase activity (human ABCB4 [1]; 1,000 μM + 300 μM DOPC, relative to DOPC alone)	Reduction of ATPase activity at 100 μM (human ABCB4 [2]; 100 μM) [%]	inhibition at 1000 µM (human ABCB4 [2]; 1,000 μM, 5% DMSO, mixture experiment Fig. 6, read-out: Inhibition of basal ATPase activity by pure bile acid at 1,000 μM) [%]	Concentration at which maximal inhibition is reached (human ABCB4 [2]; basal ATPase activity) [µM]	IC50 (human ABCB4 [2]; inhibition of basal ATPase activity, Equation 2) [µM]	Slope (human ABCB4 [2]; slope of inhibition fit (Equation 2))	ATPase activity in the presence of cholesterol:DOPC 1.5:1 (human ABCB4 [1]; 1,000 μM BAM or Nor-UDCA added to cholesterol:DOPC (1.5:1, 300 μM DOPC), DOPC alone set to 100%) [%]	Increase of ATPase activity compared with UDCA (human ABCB4 [2]; maximal stimulation, side chain shortened by one carbon atom)
C[C@H](CCC(=O)NCC(=O)O)[C@H]1CC[C@H]2[C@@H]3[C@H](O)C[C@@H]4C[C@H](O)CC[C@]4(C)[C@H]3C[C@H](O)[C@]12C [GCA]	171 ± 6.9	2.9 ± 0.4	approximately 400 μM	177 ± 9.9	733 ± 24	4.1 mM and 4.1 ± 0.1 mM	–	–	–	–	–	–	–	–
C[C@H](CCC(=O)NCCS(=O)(=O)O)[C@H]1CC[C@H]2[C@@H]3[C@H](O)C[C@@H]4C[C@H](O)CC[C@]4(C)[C@H]3CC[C@]12C [TCDCA, taurochenodeoxycholic acid]	112 ± 8.2	2.6 ± 0.4	approximately 500 μM	169 ± 11	423 ± 15	1.7 mM and 1.7 ± 0.1 mM	–	–	–	–	–	–	–	–
C[C@H](CCC(=O)O)[C@H]1CC[C@H]2[C@@H]3[C@H](O)C[C@@H]4C[C@H](O)CC[C@]4(C)[C@H]3C[C@H](O)[C@]12C [CA, cholic acid]	117 ± 8.9	2.8 ± 0.3	–	390 ± 22.7	310 ± 16.4	2.3 mM and 2.3 ± 0.2 mM	–	–	–	–	–	–	–	–
C[C@H](CCC(=O)O)[C@H]1CC[C@H]2[C@@H]3[C@@H](O)C[C@@H]4C[C@H](O)CC[C@]4(C)[C@H]3CC[C@]12C [UDCA, Ursodeoxycholic acid]	115 ± 22.1	4.6 ± 1.3	–	470 ± 34.5	110 ± 10.7	1.3 mM and 1.3 ± 0.1 mM	–	–	–	–	–	–	–	–
C[C@H](CCC(=O)NCCS(=O)(=O)O)[C@H]1CC[C@H]2[C@@H]3CC[C@@H]4C[C@H](O)CC[C@]4(C)[C@H]3CC[C@]12C [TLCA, taurolithocholic acid]	34.8 ± 21.9	–	–	–	–	0.14 mM and 0.14 ± 0.03 mM	approximately 65%	36	~50	400	113	−2.7 ± 2.1	–	–
C[C@H](CC(=O)O)[C@H]1CC[C@H]2[C@@H]3[C@@H](O)C[C@@H]4C[C@H](O)CC[C@]4(C)[C@H]3CC[C@]12C [Nor-UDCA, 24-nor-ursodeoxycholic acid]	373 ± 30	6.3 ± 1.3	–	476 ± 18.5	195 ± 10.8	1.8 mM and 1.8 ± 0.1 mM	–	–	–	–	–	–	380.7 ± 45.6	approximately 85%
C[C@H](CCC(=O)O)[C@H]1CC[C@H]2[C@@H]3CC[C@@H]4C[C@H](O)CC[C@]4(C)[C@H]3C[C@H](O)[C@]12C [DCA, deoxycholic acid]	100 ± 7.5	2.6 ± 0.6	300 µM	75 ± 7.3	214 ± 13.3	1.4 mM and 1.4 ± 0.1 mM	–	–	–	–	–	–	–	–
C[C@H](CCC(=O)NCC(=O)O)[C@H]1CC[C@H]2[C@@H]3CC[C@@H]4C[C@H](O)CC[C@]4(C)[C@H]3C[C@H](O)[C@]12C [GDCA]	156 ± 8.9	5.9 ± 1.2	–	47.9 ± 1.5	259 ± 5	2.0 mM and 2.0 ± 0.1 mM	–	–	–	–	–	–	–	–
C[C@H](CCC(=O)O)[C@H]1CC[C@H]2[C@@H]3[C@H](O)C[C@@H]4C[C@H](O)CC[C@]4(C)[C@H]3CC[C@]12C [CDCA, chenodeoxycholic acid]	89.7 ± 1.4	1.8 ± 0.4	–	308 ± 56.8	137 ± 16.8	1.5 mM and 1.5 ± 0.1 mM	–	–	–	–	–	–	–	–
C[C@H](CCC(=O)NCCS(=O)(=O)O)[C@H]1CC[C@H]2[C@@H]3[C@@H](O)C[C@@H]4C[C@H](O)CC[C@]4(C)[C@H]3CC[C@]12C [TUDCA]	88.2 ± 8.3	4.5 ± 1.4	–	267	154 ± 11	1.5 mM and 1.5 ± 0.2 mM	–	–	–	–	–	–	–	–
C[C@H](CCC(=O)NCC(=O)O)[C@H]1CC[C@H]2[C@@H]3[C@H](O)C[C@@H]4C[C@H](O)CC[C@]4(C)[C@H]3CC[C@]12C [GCDCA]	127 ± 2.8	3.9 ± 1.5	approximately 150 μM	77.8 ± 7.5	223 ± 10	2.6 mM and 2.6 ± 0.1 mM	–	–	–	–	–	–	–	–
